Results from US20060058329A1, “Pyrazole inhibitors of the transforming growth factor” (priority 2003, published 2006).

Assays:
[1] = biological target: T1, recombinant GST-ALK5 (residues 198-503) (Homo sapiens, UniProt P36897); assay: Alk5 fluorescence polarization assay; format: binding; conditions: rhodamine green-labelled ligand 1 nM, ALK5 10 nM, read-out: ALK5 receptor modulator activity (IC50)
T1 construct: recombinant GST-ALK5 (residues 198-503)
T1 sequence (P36897 198-503): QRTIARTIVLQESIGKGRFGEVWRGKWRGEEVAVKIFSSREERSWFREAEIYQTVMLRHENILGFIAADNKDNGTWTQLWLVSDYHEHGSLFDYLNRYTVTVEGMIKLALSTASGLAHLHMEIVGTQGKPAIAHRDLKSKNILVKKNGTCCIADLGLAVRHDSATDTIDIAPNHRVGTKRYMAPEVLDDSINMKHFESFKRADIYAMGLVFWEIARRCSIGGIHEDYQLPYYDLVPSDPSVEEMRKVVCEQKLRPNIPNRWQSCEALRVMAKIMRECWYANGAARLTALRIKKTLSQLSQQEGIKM
Method: Assay 2 (Alk5 Fluorescence Polarization Assay)
Kinase inhibitor compounds conjugated to fluorophores, can be used as fluorescent ligands to monitor ATP competitive binding of other compounds to a given kinase. The increase in depolarization of plane polarized light, caused by release of the bound ligand into solution, is measured as a polarization/anisotropy value. This protocol details the use of a rhodamine green-labelled ligand for assays using recombinant GST-ALK5 (residues 198-503).
Assay buffer components: 62.5 mM Hepes pH 7.5 (Sigma H-4034), 1 mM DTT (Sigma D-0632), 12.5 mM MgCl2 (Sigma M-9272), 1.25 mM CHAPS (Sigma C-3023). […]
ALK5 was added to assay buffer containing the above components and 1 nM of the rhodamine green-labelled ligand so that the final ALK5 concentration was 10 nM based on active site titration of the enzyme. […] The plates were read immediately on a LJL Acquest fluorescence reader (Molecular Devices, serial number AQ1048) with excitation, emission, and dichroic filters of 485 nm, 530 nm, and 505 nm, respectively. The fluorescence polarization for each well was calculated by the Acquest reader and then imported into curve fitting software for construction of concentration response curves. The normalized response was determined relative to the high controls (1 μl DMSO in column 12, rows A-D) and the low controls (1 μl of control compound in column 12, rows E-H). […]

[2] = test system: TGF-β signalling (PAI-1 promoter-luciferase in HepG2 cells); assay: Cellular transcriptional assay (PAI-1 promoter luciferase reporter, TGF-β stimulated); conditions: for IC50: Homo sapiens, HepG2, read-out: TGF-β cellular activity (IC50)
Method: Assay 1 (Cellular Transcriptional Assay)
The assay was performed in HepG2 cells stably transfected with the PAI-1 promoter (known to be a strong TGF-β responsive promoter) linked to a luciferase (firefly) reporter gene. The compounds were selected on their ability to inhibit luciferase activity in cells exposed to TGF-β. In addition, cells were transfected with a second luciferase (Renilla) gene which was not driven by a TGF-β responsive promoter and was used as a toxicity control.
96 well microplates were seeded, using a multidrop apparatus, with the stably transfected cell line at a concentration of 35000 cells per well in 200 μl of serum-containing medium. These plates were placed in a cell incubator.
18 to 24 hours later (Day 2), cell-incubation procedure was launched. Cells were incubated with TGF-β and a candidate compound at concentrations in the range 50 nM to 10 μM (final concentration of DMSO 1%). The final concentration of TGF-β (rhTGFβ-1) used in the test was 1 ng/mL. […] The final volume of the test reaction was 150 μl. Each well contained only one candidate compound and its effect on the PAI-1 promoter was monitored.
Columns 11 and 12 were employed as controls. Column 11 contained 8 wells in which the cells were incubated in the presence of TGF-β, without a candidate compound. Column 11 was used to determine the ‘reference TGF-β induced firefly luciferase value’ against which values measured in the test wells (to quantify inhibitory activity) were compared. In wells A12 to D12, cells were grown in medium without TGF-β. […]
12 to 18 hours later (day 3), the luciferase quantification procedure was launched. […] Following agitation (15 to 30 mins), luciferase activities of the plates were read in a dual-injector luminometer (BMG lumistar). For this purpose, 50 μl of luciferase assay reagent and 50 μL of ‘Stop & Glo’ buffer were injected sequentially to quantify the activities of both luciferases. […] For each of the compounds tested, a concentration response curve was constructed from which an IC50 value was determined graphically.

| SMILES | IC50 [1] [nM] | IC50 [2] [nM] | melting point [°C] | firefly and renilla luciferase activities, relative to those obtained in column 11 (TGF-β only) ([2]; 500 μM CPO in the presence of TGF-β, toxicity control) |
| --- | --- | --- | --- | --- |
| Cc1cccc(-c2cn[nH]c2-c2ccnc(-c3ccc(OCCN4CCCC4)cc3)c2)n1 [Example 22, 3-[2-(4-(2-(pyrolidin-1-yl)ethoxy)phenyl)pyridin-4-yl]-4-[6-methylpyridin-2-yl]-1H-pyrazole] | 17 | 38 | 96 | – |
| O=C1C=CCC1 [CPO, Cyclopentenone, reference compound] | – | – | – | around 50% |
| Cc1cccc(-c2cn[nH]c2-c2ccnc(-c3ccc(OCC(=O)N4CCOCC4)cc3)c2)n1 [Example 23, 3-[2-(4-((morpholin-4-yl)carbonylmethyloxy)phenyl)pyridin-4-yl]-4-[6-methylpyridin-2-yl]-1H-pyrazole] | – | – | 170 | – |
| CCN1CCN(C(=O)c2ccc(-c3cc(-c4[nH]ncc4-c4cccc(C)n4)ccn3)cc2)CC1 [Example 19, 3-[2-(4-((1-ethyl-piperazin-4-yl)carbonyl)phenyl)pyridin-4-yl]-4-[6-methylpyridin-2-yl]-1H-pyrazole] | – | – | 126 | – |
| Cc1cccc(-c2n[nH]cc2-c2ccnc(-c3ccc(OCc4cn(C)cn4)cc3)c2)n1 [Example 1, 2-{4-[(1-methyl-1H-imidazol-4-yl)methoxy]phenyl}-4-[3-(6-methylpyridin-2-yl)-1H-pyrazol-4-yl]pyridine] | 5 | 34 | – | – |
